The values below come from patent publication US11667602B2, “Compounds and their use” (AstraZeneca AB, priority 2020, dated 2023).

The microsomal CLint is the capacity of the preparation to metabolise the compound, expressed as a volume cleared per time. Low readings indicate greater metabolic stability, high ones faster metabolism. What is called EC50 is the midpoint of the concentration-response curve. Usually hepatocyte CLint stands for the capacity of the preparation to metabolise the compound, expressed as a volume cleared per time. A higher hepatocyte CLint goes with rapid turnover. As usually defined, the solubility is how much of the substance goes into solution per volume. A higher solubility goes with a readily soluble substance.

A short description of data set [1]: Human Liver Microsomal Stability (Test C). The format is in vitro ADME. As to conditions: human, liver microsomes. Put shortly:
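Human liver microsome incubation per the Wernevik et al. integrated DMPK panel protocol. Intrinsic clearance reported as CLint in μl/min/mg protein, averaged arithmetically over repeat runs.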
In general terms: Liver microsomes are a subcellular fraction often used to study metabolism.

The target of another data set is T1, human RXFP1 (Homo sapiens, UniProt Q9HBX9).
T1 sequence (Q9HBX9 1-757): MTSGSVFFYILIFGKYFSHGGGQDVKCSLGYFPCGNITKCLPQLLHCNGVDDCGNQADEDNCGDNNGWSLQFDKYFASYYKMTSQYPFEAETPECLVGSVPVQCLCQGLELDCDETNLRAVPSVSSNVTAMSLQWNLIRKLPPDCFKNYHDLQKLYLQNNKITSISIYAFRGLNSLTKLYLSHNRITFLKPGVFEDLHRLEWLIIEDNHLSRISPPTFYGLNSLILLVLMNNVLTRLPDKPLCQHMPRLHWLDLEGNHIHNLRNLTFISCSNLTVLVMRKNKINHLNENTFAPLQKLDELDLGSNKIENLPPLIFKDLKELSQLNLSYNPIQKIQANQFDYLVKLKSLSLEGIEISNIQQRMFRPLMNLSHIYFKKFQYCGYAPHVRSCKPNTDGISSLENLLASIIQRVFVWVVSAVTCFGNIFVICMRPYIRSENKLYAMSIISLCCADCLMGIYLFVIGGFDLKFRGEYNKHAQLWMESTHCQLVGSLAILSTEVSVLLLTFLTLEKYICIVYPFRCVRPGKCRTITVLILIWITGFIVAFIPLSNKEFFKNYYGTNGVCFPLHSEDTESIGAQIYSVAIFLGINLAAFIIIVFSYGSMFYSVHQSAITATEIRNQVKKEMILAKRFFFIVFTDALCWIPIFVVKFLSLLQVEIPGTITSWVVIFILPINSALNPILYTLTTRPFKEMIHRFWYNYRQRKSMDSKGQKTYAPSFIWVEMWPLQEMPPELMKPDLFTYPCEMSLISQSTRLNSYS
Put plainly: RXFP1 Hu cAMP (Test A). The format is cell-based. On the set-up: expressed in transfected cells; host or cells: Jump-In T-REx CHO-K1 cells (ThermoFisher), induced with 10 ng/ml doxycycline for 24 h. The following applies: RXFP1 Hu cAMP; for EC50: read-out: Test A EC50. Put shortly:
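Doxycycline-induced (10 ng/ml, 24 h) CHO-K1 cells stably expressing human RXFP1; cAMP read by competitive HTRF after 2 h at room temperature, with 0.5 mM IBMX final.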

Data set [2] in a line: Rat Hepatocyte Stability (Test E). Type of data set: in vitro ADME. The following applies: rat, hepatocytes, geometric mean if run multiple times. Put shortly: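 Run per the published AstraZeneca-type rat hepatocyte stability protocol (Wernevik et al. panel). Values are mean intrinsic clearance, Clint in μl/min/10^6 cells; geometric mean used for repeated runs.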
A short description of the next data set: Solubility (Test F). The format is physicochemical. The following applies: arithmetic mean if run multiple times. On the procedure: The assay was conducted according to the Solubility Assay described in pages 164-167 of Wernevik, J. et al., “A Fully Integrated Assay Panel for Early Drug Metabolism and Pharmacokinetics Profiling”, Assay and Drug Development Technologies, 2020, 18(4), 157-179. Data are reported in Table 36 as solubility ([…]. Where the assay was run multiple times for the same compound, the arithmetic mean is reported.

Data set [3] can be described thus: Human Plasma Protein Binding (Test B). The format is in vitro ADME. The following applies: fraction unbound (fu). Put shortly:
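Human plasma protein binding run per the published Wernevik et al. (2020) integrated DMPK panel protocol. Values are fraction unbound (fu, % free); repeat runs averaged arithmetically.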

Converted amounts (≈) assume the structure as drawn.

With `COc1cc(F)c(O[C@H]2CC[C@@H](C(=O)O)CC2)cc1C(=O)N[C@@H]1[C@H]2CC[C@H](C2)[C@@H]1C(=O)Nc1cccc(C2CC2)c1` [Example 190], the microsomal CLint in data set [1] worked out at 23 µL/min/mg. Further, at human RXFP1, the “Test A Sinf” value was 110% and the half-maximal effective concentration (EC50) amounted to 680 nM. Besides, in data set [2], the intrinsic metabolic clearance (hepatocyte CLint) was found to be 120 µL/min/1e6 cells. The amount in solution in “Solubility (Test F)” (solubility) came to 420 µM (≈ 237 µg/mL). The “Test B Human Plasma Protein Binding (% free)” value in data set [3] was found to be 1.6 % free.
`COc1cc(F)c(O[C@H]2CC[C@@H](C(=O)O)CC2)cc1C(=O)N[C@@H]1[C@H]2CC[C@H](C2)[C@@H]1C(=O)Nc1cc(C#N)cc(C(F)(F)F)c1` [Example 191, (1S,4s)-4-(5-(((1S,2R,3S,4R)-3-((3-Cyano-5-(trifluoromethyl)phenyl)carbamoyl)bicyclo[2.2.1]heptan-2-yl)carbamoyl)-2-fluoro-4-methoxyphenoxy)cyclohexane-1-carboxylic acid] registered a microsomal CLint in data set [1] of 20 µL/min/mg. At human RXFP1, the “Test A Sinf” value is recorded as 86% and the EC50 is > 3600 nM. In data set [2], this compound showed an intrinsic metabolic clearance (hepatocyte CLint) of 15 µL/min/1e6 cells. In “Solubility (Test F)”, the solubility is > 1000 µM. Besides, the “Test B Human Plasma Protein Binding (% free)” value in data set [3] is on record as 1.1 % free.
The compound `COc1cc(F)c(O[C@H]2CC[C@@H](C(=O)O)CC2)cc1C(=O)N[C@@H]1[C@H]2CC[C@H](C2)[C@@H]1C(=O)Nc1ccc(C)c(C(F)(F)F)c1` [Example 192, (1S,4s)-4-(2-Fluoro-4-methoxy-5-(((1S,2R,3S,4R)-3-((4-methyl-3-(trifluoromethyl)phenyl)carbamoyl)bicyclo[2.2.1]heptan-2-yl)carbamoyl)phenoxy)cyclohexane-1-carboxylic acid] displayed an intrinsic metabolic clearance (microsomal CLint) in data set [1] of 21 µL/min/mg. On human RXFP1, the “Test A Sinf” value stood at 109% and the EC50 is 35 nM. In data set [2], the intrinsic clearance (hepatocyte CLint) was found to be 43 µL/min/1e6 cells. Also, the solubility in “Solubility (Test F)” came out at 120 µM (≈ 72.8 µg/mL). In data set [3], the “Test B Human Plasma Protein Binding (% free)” value was 0.67 % free.
Compound `COc1cc(F)c(O[C@H]2CC[C@@H](C(=O)O)CC2)cc1C(=O)N[C@@H]1[C@H]2CC[C@H](C2)[C@@H]1C(=O)Nc1cccc(C(F)(F)F)c1` [Example 193] had an intrinsic metabolic clearance (microsomal CLint) in data set [1] of 29 µL/min/mg. In addition, on human RXFP1, the “Test A Sinf” value came out at 105% and the EC50 worked out at 62 nM. In data set [2], the hepatocyte CLint came out at 61 µL/min/1e6 cells. In addition, the solubility in the data set “Solubility (Test F)” is > 1000 µM. In addition, in data set [3], the “Test B Human Plasma Protein Binding (% free)” value came out at 0.93 % free.
For the compound `COc1cc(NC(=O)[C@H]2[C@@H]3CC[C@@H](C3)[C@H]2NC(=O)c2cc(O[C@H]3CC[C@@H](C(=O)O)CC3)c(F)cc2OC)cc(C(F)(F)F)c1` [Example 194], in data set [1], the intrinsic metabolic clearance (microsomal CLint) amounted to 31 µL/min/mg. Also, on human RXFP1, the “Test A Sinf” value is 99% and the EC50 turned out to be 470 nM. This compound also showed an intrinsic clearance (hepatocyte CLint) in data set [2] of 24 µL/min/1e6 cells. The compound further had a solubility in “Solubility (Test F)” of 530 µM (≈ 330 µg/mL). For the same compound, in data set [3], the “Test B Human Plasma Protein Binding (% free)” value was 0.53 % free.
`COc1cc(F)c(O[C@H]2CC[C@@H](C(=O)O)CC2)cc1C(=O)N[C@@H]1[C@H]2CC[C@H](C2)[C@@H]1C(=O)Nc1cccc(OC(F)F)c1` [Example 195] displayed a microsomal CLint in data set [1] of 28 µL/min/mg. On human RXFP1, the “Test A Sinf” value is on record as 131% and the EC50 stood at 830 nM. Moreover, the hepatocyte CLint in data set [2] was determined as 130 µL/min/1e6 cells. Also, the solubility in “Solubility (Test F)” amounted to 860 µM (≈ 508 µg/mL). For the same compound, the “Test B Human Plasma Protein Binding (% free)” value in data set [3] worked out at 1.6 % free.
In data set [1], `COc1cc(F)c(O[C@H]2CC[C@@H](C(=O)O)CC2)cc1C(=O)N[C@@H]1[C@H]2CC[C@H](C2)[C@@H]1C(=O)Nc1cccc(C(C)C)c1` [Example 196, (1S,4s)-4-(2-Fluoro-5-(((1S,2R,3S,4R)-3-((3-isopropylphenyl)carbamoyl)bicyclo[2.2.1]heptan-2-yl)carbamoyl)-4-methoxyphenoxy)cyclohexane-1-carboxylic acid] registered a microsomal CLint of 40 µL/min/mg. Moreover, at human RXFP1, the “Test A Sinf” value turned out to be 103% and the EC50 stood at 220 nM. The compound also yielded an intrinsic metabolic clearance (hepatocyte CLint) in data set [2] of 79 µL/min/1e6 cells. Besides, in the data set “Solubility (Test F)”, the solubility is 290 µM (≈ 164 µg/mL). Moreover, the “Test B Human Plasma Protein Binding (% free)” value in data set [3] is given as 1.7 % free.
For `COc1cc(F)c(-c2ccc(C(=O)O)cc2)cc1C(=O)N[C@@H]1[C@H]2CC[C@H](C2)[C@@H]1C(=O)Nc1cccc(S(F)(F)(F)(F)F)c1` [Example 209, 2′-Fluoro-4′-methoxy-5′-(((1S,2R,3S,4R)-3-((3-(pentafluoro-λ6-sulfaneyl)phenyl)carbamoyl)bicyclo[2.2.1]heptan-2-yl)carbamoyl)-[1,1′-biphenyl]-4-carboxylic acid], the intrinsic clearance (microsomal CLint) in data set [1] was determined as 21 µL/min/mg. In addition, at human RXFP1, the “Test A Sinf” value is 101% and the EC50 amounted to 88 nM. Further, in data set [2], the hepatocyte CLint is 23 µL/min/1e6 cells. For the same compound, in “Solubility (Test F)”, the solubility worked out at 54 µM (≈ 33.9 µg/mL). Also, in data set [3], the “Test B Human Plasma Protein Binding (% free)” value came out at 0.10 % free.
Consider `COc1cc(F)c(-c2ccc(C(=O)O)cc2)cc1C(=O)N[C@@H]1[C@H]2CC[C@H](C2)[C@@H]1C(=O)Nc1ccc(S(F)(F)(F)(F)F)cc1` [Example 210, 2′-Fluoro-4′-methoxy-5′-(((1S,2R,3S,4R)-3-((4-(pentafluoro-λ^6-sulfaneyl)phenyl)carbamoyl)bicyclo[2.2.1]heptan-2-yl)carbamoyl)-[1,1′-biphenyl]-4-carboxylic acid], for which the microsomal CLint in data set [1] was < 3 µL/min/mg. For the same compound, at human RXFP1, the “Test A Sinf” value amounted to 50% and the concentration giving a half-maximal response (EC50) is > 3600 nM. This compound also had an intrinsic metabolic clearance (hepatocyte CLint) in data set [2] of 10 µL/min/1e6 cells. Also, in “Solubility (Test F)”, the solubility came to 67 µM (≈ 42.1 µg/mL). Moreover, the “Test B Human Plasma Protein Binding (% free)” value in data set [3] is recorded as 0.049 % free.
`COc1cc(F)c(O[C@H]2CC[C@@](C)(C(=O)O)CC2)cc1C(=O)Nc1c(C)cc(C)cc1C(=O)NCC1(C)CCC1` [Example 211, (1s,4s)-4-(5-((2,4-Dimethyl-6-(((1-methylcyclobutyl)methyl)carbamoyl)phenyl)carbamoyl)-2-fluoro-4-methoxyphenoxy)-1-methylcyclohexane-1-carboxylic acid] yielded an intrinsic metabolic clearance (microsomal CLint) in data set [1] of 5.2 µL/min/mg. Also, on human RXFP1, the “Test A Sinf” value was 100% and the half-maximal effective concentration (EC50) is > 9300 nM. In data set [2], this compound registered an intrinsic clearance (hepatocyte CLint) of 12 µL/min/1e6 cells. The solubility in the data set “Solubility (Test F)” stood at 29 µM (≈ 16.1 µg/mL). Besides, in data set [3], the “Test B Human Plasma Protein Binding (% free)” value was 1.4 % free.
In the case of `COc1cc(F)c(O[C@H]2CC[C@@](C)(C(=O)O)CC2)cc1C(=O)Nc1cc(C)c(C)cc1C(=O)NCC1(C)CCC1` [Example 212, (1s,4s)-4-(5-((4,5-Dimethyl-2-(((1-methylcyclobutyl)methyl)carbamoyl)phenyl)carbamoyl)-2-fluoro-4-methoxyphenoxy)-1-methylcyclohexane-1-carboxylic acid], the microsomal CLint in data set [1] stood at 6.5 µL/min/mg. Besides, on human RXFP1, the “Test A Sinf” value is 134% and the EC50 was 310 nM. The hepatocyte CLint in data set [2] amounted to 17 µL/min/1e6 cells. This compound also showed a solubility in “Solubility (Test F)” of 4 µM (≈ 2.22 µg/mL). Also, the “Test B Human Plasma Protein Binding (% free)” value in data set [3] is recorded as <2.7 % free.
As to `COc1cc(F)c(O[C@H]2CC[C@@](C)(C(=O)O)CC2)cc1C(=O)Nc1cc2ccccc2cc1C(=O)NCC1(C)CCC1` [Example 215, (1s,4s)-4-(2-Fluoro-4-methoxy-5-((3-(((1-methylcyclobutyl)methyl)carbamoyl)naphthalen-2-yl)carbamoyl)phenoxy)-1-methylcyclohexane-1-carboxylic acid], the intrinsic metabolic clearance (microsomal CLint) in data set [1] is < 3 µL/min/mg. Besides, at human RXFP1, the “Test A Sinf” value amounted to 143% and the half-maximal effective concentration (EC50) was found to be 200 nM. The compound further had an intrinsic metabolic clearance (hepatocyte CLint) in data set [2] of 20 µL/min/1e6 cells. The solubility in the data set “Solubility (Test F)” is < 0.23 µM. The “Test B Human Plasma Protein Binding (% free)” value in data set [3] amounted to 0.20 % free.
The compound `COc1cc(F)c(O[C@H]2CC[C@@](C)(C(=O)O)CC2)cc1C(=O)Nc1nn2cccnc2c1C(=O)NCC1(C)CCC1` [Example 217, (1s,4s)-4-(2-Fluoro-4-methoxy-5-((3-(((1-methylcyclobutyl)methyl)carbamoyl)pyrazolo[1,5-a]pyrimidin-2-yl)carbamoyl)phenoxy)-1-methylcyclohexane-1-carboxylic acid] showed a microsomal CLint in data set [1] of 43 µL/min/mg. In addition, the EC50 on human RXFP1 was > 9400 nM. The hepatocyte CLint in data set [2] is 17 µL/min/1e6 cells. Besides, the solubility in the data set “Solubility (Test F)” was < 7.3 µM. In addition, the “Test B Human Plasma Protein Binding (% free)” value in data set [3] is on record as 0.19 % free.
